# Reference: article PMC7918738, “Microtubule Destabilizing Sulfonamides as an Alternative to Taxane-Based Chemotherapy” (International Journal of Molecular Sciences, 2021)
# Key:
# [1] = tested on: A2780 ovarian carcinoma cells; test: Antiproliferative activity against A2780 (MTT); assay type: cell-based; conditions: Homo sapiens, 72 h
# Protocol: (§1) The in vitro antiproliferative activity of compounds 38, 42, and 45 against a panel of five human ovarian carcinoma cell lines (SKOV3, IGROV-1, A2780, OVCAR-8, and OVCAR-3) was evaluated by a colorimetric method (Table 3) and compared with paclitaxel. […] For SKOV3, the potency reduction observed for paclitaxel together with a sustained or improved (42 with a 7 nM IC50 value) potency for MDS results in a more favorable profile of the MDS compared to paclitaxel.
# (§2) MCF7 (human breast carcinoma), SKOV-3 (human ovarian carcinoma), OVCAR-3 (human ovarian carcinoma), OVCAR-8 (human ovarian carcinoma), and HeLa (human cervical carcinoma) cell lines were cultured in Dulbecco’s Modified Eagle’s Medium (DMEM) (Gibco, Thermo Fischer Scientific) containing 10% (v/v) heat-inactivated fetal bovine serum (HIFBS) (Lonza-Cambrex, Karlskoga, Sweden), 2 mM L-glutamine (Lonza-Cambrex, Karlskoga, Sweden), 100 μg/mL streptomycin, and 100 IU/mL penicillin (Lonza-Cambrex) at 37 °C in humidified 95% air and 5% CO2. […]
# (§3) MCF7, HeLa, and HT-29 cell proliferation, when treated with the corresponding compounds, were determined using the XTT (sodium 3’-[1(phenylaminocarbonyl)-3,4-tetrazolium]-bis(4-methoxy-6-nitro)-benzenesulfonic acid hydrate) cell proliferation kit (Roche Molecular Biochemicals, Mannheim, Germany). […] The absorbance of the formazan product generated was measured at 450 nm using a multi-well plate reader. SKOV-3, OVCAR-3, OVCAR-8, IGROV-1, A-2780 cell proliferation, when treated with the corresponding compound, were determined using MTT (3-(4,5-dimethylthiazol-2-yl)-2,5-diphenyl-2H-tetrazolium bromide) (Sigma-Aldrich, St. Louis, MO, USA). […] Absorbance was measured at 570 nm in a plate reader (Ultra Evolution, Tecan, Männedorf, Suiza). […] After 24 h incubation, to allow cells to attach to the plates, all compounds were added at 1 µM concentration and the effect on the proliferation was evaluated 72 h post-treatment. […]
# SKOV3 cells = test: Cell cycle analysis in SKOV3 (PI staining, flow cytometry); assay type: cell-based, human; conditions: 38 600 nM, 42 50 nM, 45 400 nM; for SKOV3 cells at G2/M phase: 24 h
# Protocol: The effect of the lead MDS on the cell cycle of MCF7, SKOV3, and HeLa cells was analyzed in time-course experiments at 24, 48, and 72 h post-treatment by DNA staining and flow cytometry quantification. The working concentration for each compound (600 nM for 38, 50 nM for 42, and 400 nM for 45) was established at the complete inhibition of cell proliferation in view of individually assays run in parallel for each cell line.
# Cell cycle analysis was performed in MCF7, SKOV-3, and HeLa cells by quantifying the DNA content by flow cytometry. Cells in the exponential growth phase at 2·10^4 cells/mL were seeded in 24-well plates (1 mL/well). After 24 h incubation, cells were treated with different concentrations of the selected compounds and the effect of treated and untreated cells was measured 24, 48, and 72 h post-treatment. Live and dead cells were collected and fixed in ice-cold ethanol/PBS (7:3) and stored at 4 °C for later use. Cells were rehydrated with PBS, treated with 100 µg/mL RNase A (Sigma-Aldrich Co., St. Louis, MO, USA) and stained overnight in darkness at room temperature with 50 µg/mL PI (Sigma-Aldrich Co.). Cell cycle profiles were then analyzed by flow cytometry using BD Accuri™ C6 Plus Flow Cytometer (BD Biosciences, San José, CA, USA). Data were analyzed with BD Accuri™ C6 Software (version 1.0.264.21, BD Biosciences, San José, CA, USA) and compared to control cells. Compounds were dissolved in DMSO and the final solvent concentration never exceeded 0.5% (v/v). Control wells included cells with 0.5% (v/v) DMSO.
# [2] = tested on: OVCAR-8 ovarian carcinoma cells; test: Antiproliferative activity against OVCAR-8 (MTT); assay type: cell-based; conditions: Homo sapiens, 72 h
# Protocol: as §1, §2, §3
# [3] = tested on: OVCAR-3 ovarian carcinoma cells; test: Antiproliferative activity against OVCAR-3 (MTT); assay type: cell-based; conditions: Homo sapiens, 72 h
# Protocol: as §1, §2, §3
# [4] = tested on: IGROV-1 ovarian carcinoma cells; test: Antiproliferative activity against IGROV-1 (MTT); assay type: cell-based; conditions: Homo sapiens, 72 h
# Protocol: as §1
# MCF7 (human breast carcinoma), SKOV-3 (human ovarian carcinoma), OVCAR-3 (human ovarian carcinoma), OVCAR-8 (human ovarian carcinoma), and HeLa (human cervical carcinoma) cell lines were cultured in Dulbecco’s Modified Eagle’s Medium (DMEM) (Gibco, Thermo Fischer Scientific) containing 10% (v/v) heat-inactivated fetal bovine serum (HIFBS) (Lonza-Cambrex, Karlskoga, Sweden), 2 mM L-glutamine (Lonza-Cambrex, Karlskoga, Sweden), 100 μg/mL streptomycin, and 100 IU/mL penicillin (Lonza-Cambrex) at 37 °C in humidified 95% air and 5% CO2. HT-29 (human colon carcinoma), IGROV-1 (human ovarian carcinoma), and A2780 (human ovarian carcinoma) cell lines were cultured in RPMI 1640 medium (Gibco, Thermo Fischer Scientific) supplemented with 10% HIFBS, 100 μg/mL streptomycin, and 100 IU/mL penicillin at 37 °C in humidified 95% air and 5% CO2 atmosphere. The presence of mycoplasma was routinely checked with MycoAlert kit (Lonza-Cambrex) and only mycoplasma-free cells were used in the experiments. Ovarian tumor cell lines were originally acquired from Dr Atanasio Pandiella from Centro de Investigación del Cáncer (CIC), Salamanca, Spain. HeLa, HT-29 and MCF7 tumor cell lines were provided by Dr Faustino Mollinedo from Centro de Investigaciones Biológicas Margarita Salas, Madrid, Spain.
# as §3
IC50 [1] [nM],IC50 [2] [nM],IC50 [3] [nM],IC50 [4] [nM],SMILES,SKOV3 cells at G2/M phase (SKOV3 cells) [%],SKOV3 cells at SubG0/G1 (SKOV3 cells; 48 h) [%],SKOV3 cells at SubG0/G1 (SKOV3 cells; 72 h) [%]
68,74,31,248,CNc1ccc(S(=O)(=O)N(C)c2cc(OC)c(OC)c(OC)c2)cc1 [Compound 38],44,35,43
42,37,72,400,COc1ccc(S(=O)(=O)N(C)c2cc(OC)c(OC)c(OC)c2)cc1N [Compound 42],44,34,53
104,48,58,492,COc1ccc(S(=O)(=O)N(Cc2ccccc2)c2cc(OC)c(OC)c(OC)c2)cc1N [Compound 45],44,46,63
